{
  "source": "paper PMC2785468",
  "about": "“Androgen Receptor Mutations Associated with Androgen Insensitivity Syndrome: A High Content Analysis Approach Leading to Personalized Medicine” (PLoS ONE, 2009)",
  "type_in_all_cases": "cell-based",
  "key": {"[1]": {"biological_target": "T1, AR-F764L (Homo sapiens, UniProt P10275, F765L)", "T1 construct": "segments AR 624-919 (wild type or containing mutations F764L, R840C, and P766S); expressed in transfected cells; host or cells: HeLa, transient co-transfection", "T1 sequence (P10275 624-919 F765L)": "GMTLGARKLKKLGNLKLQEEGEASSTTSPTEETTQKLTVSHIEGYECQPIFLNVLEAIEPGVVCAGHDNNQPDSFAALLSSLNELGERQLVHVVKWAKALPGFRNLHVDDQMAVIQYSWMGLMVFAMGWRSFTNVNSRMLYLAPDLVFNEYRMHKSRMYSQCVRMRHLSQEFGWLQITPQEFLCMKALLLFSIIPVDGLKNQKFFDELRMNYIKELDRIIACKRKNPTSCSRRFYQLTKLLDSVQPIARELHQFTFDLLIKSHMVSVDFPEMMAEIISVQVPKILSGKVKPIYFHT", "T1 sequence (P10275 1-660 partner limits assumed)": "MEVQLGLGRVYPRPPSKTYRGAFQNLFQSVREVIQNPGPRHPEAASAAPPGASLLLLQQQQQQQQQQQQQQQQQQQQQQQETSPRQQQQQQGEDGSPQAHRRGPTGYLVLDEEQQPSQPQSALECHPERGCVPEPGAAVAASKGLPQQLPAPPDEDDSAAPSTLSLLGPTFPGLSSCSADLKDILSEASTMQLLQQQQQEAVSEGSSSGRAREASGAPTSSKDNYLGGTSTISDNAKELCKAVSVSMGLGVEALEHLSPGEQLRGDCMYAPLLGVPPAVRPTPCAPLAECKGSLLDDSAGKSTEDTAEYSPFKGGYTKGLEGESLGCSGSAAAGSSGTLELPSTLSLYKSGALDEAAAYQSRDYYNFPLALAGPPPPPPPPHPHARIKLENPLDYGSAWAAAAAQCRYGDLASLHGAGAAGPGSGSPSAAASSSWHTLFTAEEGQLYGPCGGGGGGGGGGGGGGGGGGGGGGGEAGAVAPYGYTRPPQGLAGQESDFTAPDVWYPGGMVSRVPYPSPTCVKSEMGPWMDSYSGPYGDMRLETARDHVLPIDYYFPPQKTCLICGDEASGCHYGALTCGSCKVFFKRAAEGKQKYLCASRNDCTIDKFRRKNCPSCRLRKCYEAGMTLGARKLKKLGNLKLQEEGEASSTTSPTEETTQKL", "description": "(§1) An interaction between COOH terminal AF2 (activation function 2) and NH2 terminal sequence F^23XXLF^27 is an important step toward the activation of AR [30]. The NC-TDI was measured using the reagents of the CheckMate™/Flexi® Vector Mammalian Two-Hybrid System, Promega (Madison, WI). […] One day before transfection, 1.5×10^6 Hela cells were seeded into a 60 mm dish. […] After 12 hours of transfection, cells were trypsinized and equally seeded into nine wells of a 12 well plate, with one well treated with vehicle and others with various concentration of different ligand. After 24 h of treatment, luciferase activity was assayed with the Promega Dual Glo assay kit, using a luminometer (PerkinElmer). Data represent the average±SD of three independent experiments, are expressed as fold-induction compared with negative control, and represent the units of firefly luciferase corrected for the units of renilla luciferase detected in the same plate.\nas §1, with “Figure 3 NH2-COOH-terminal domain” for “An”, “(NC-TDI) assay.” for “between COOH terminal AF2 (activation function 2) and NH2 terminal sequence F^23XXLF^27 is an important step toward the activation of AR [30]. The NC-TDI was measured using the reagents of the CheckMate™/Flexi® Vector Mammalian Two-Hybrid System, Promega (Madison, WI).”, “HeLa” for “Hela”, “c/w” for “compared with”"}, "[2]": {"biological_target": "T2, AR-R840C (Homo sapiens, UniProt P10275, R841C)", "T2 construct": "segments AR 624-919 (wild type or containing mutations F764L, R840C, and P766S); expressed in transfected cells; host or cells: HeLa, transient co-transfection", "T2 sequence (P10275 624-919 R841C)": "T1 sequence (P10275 624-919 F765L) with L142F, R218C", "T2 sequence (P10275 1-660 partner limits assumed)": "T1 sequence (P10275 1-660 partner limits assumed)", "description": "as §1\nas §1, with “Figure 3 NH2-COOH-terminal domain” for “An”, “(NC-TDI) assay.” for “between COOH terminal AF2 (activation function 2) and NH2 terminal sequence F^23XXLF^27 is an important step toward the activation of AR [30]. The NC-TDI was measured using the reagents of the CheckMate™/Flexi® Vector Mammalian Two-Hybrid System, Promega (Madison, WI).”, “HeLa” for “Hela”, “c/w” for “compared with”"}, "[3]": {"biological_target": "T3, AR-P766S (Homo sapiens, UniProt P10275, P767S)", "T3 construct": "segments AR 624-919 (wild type or containing mutations F764L, R840C, and P766S); expressed in transfected cells; host or cells: HeLa, transient co-transfection", "T3 sequence (P10275 624-919 P767S)": "T1 sequence (P10275 624-919 F765L) with L142F, P144S", "T3 sequence (P10275 1-660 partner limits assumed)": "T1 sequence (P10275 1-660 partner limits assumed)", "conditions": "doses of 200 nM, compared with wt AR at 0.2 nM", "description": "as §1\nas §1, with “Figure 3 NH2-COOH-terminal domain” for “An”, “(NC-TDI) assay.” for “between COOH terminal AF2 (activation function 2) and NH2 terminal sequence F^23XXLF^27 is an important step toward the activation of AR [30]. The NC-TDI was measured using the reagents of the CheckMate™/Flexi® Vector Mammalian Two-Hybrid System, Promega (Madison, WI).”, “HeLa” for “Hela”, “c/w” for “compared with”"}, "[4]": {"biological_target": "T4, wild type AR (Homo sapiens, UniProt P10275)", "T4 construct": "segments AR 624-919 (wild type or containing mutations F764L, R840C, and P766S); expressed in transfected cells; host or cells: HeLa, transient co-transfection", "T4 sequence (P10275 624-919)": "T1 sequence (P10275 624-919 F765L) with L142F", "T4 sequence (P10275 1-660 partner limits assumed)": "T1 sequence (P10275 1-660 partner limits assumed)", "conditions": "ligands at 0.2–200 nM, 24 h", "description": "as §1\nas §1, with “Figure 3 NH2-COOH-terminal domain” for “An”, “(NC-TDI) assay.” for “between COOH terminal AF2 (activation function 2) and NH2 terminal sequence F^23XXLF^27 is an important step toward the activation of AR [30]. The NC-TDI was measured using the reagents of the CheckMate™/Flexi® Vector Mammalian Two-Hybrid System, Promega (Madison, WI).”, “HeLa” for “Hela”, “c/w” for “compared with”"}},
  "note": "Positions count from the first letter of the chain named.",
  "data": [
    {"smiles": "C[C@@H]1CC2=CC(=O)CC[C@@H]2[C@H]2CC[C@@]3(C)[C@@H](CC[C@]3(C)O)[C@@H]21", "note": "[Mb, Mibolerone]", "values": [
      {"measurement": "NC-TDI, % of wild type receptor", "setting": "[1]; at 0.2 nM", "value": 10, "unit": "%"},
      {"measurement": "NC-TDI response", "setting": "[1]; at 200 nM", "value": 3.1, "unit": "fold"},
      {"measurement": "concentration at which the NC-TDI response saturated", "setting": "[2]", "value": 2, "unit": "nM"},
      {"measurement": "NC-TDI rescue (in words)", "setting": "[3]", "value": "rescue the NC-TDI response to the levels observed with wt AR"},
      {"measurement": "NC-TDI maximal response (luciferase activity)", "setting": "[4]", "value": 7.1, "unit": "fold increase"}
    ]}
  ]
}
